Test results: patent US4232148A, “6-Deoxyneamines” (The Upjohn Company, priority 1979, dated 1980)
≈ marks a conversion by molar mass, not a printed value. Read-outs that look alike come from different tables or passages of the source.

Test system: S. marcescens UC 131
Assay: standard microplate test in BHI Agar, MIC
Format: cell-based
Conditions: Serratia marcescens, UC131, 37°, 20 hours
Protocol: The compounds VII, XI, XVβ, XVα and XVI were tested in a standard microplate test in BHI (Brain Heart Infusion) Agar at a concentration of 1 mg./ml. and dilutions thereof at 37° incubation temperature. The end points are read at 20 hours. BHI Agar is supplied by Difco Laboratories, Detroit, Mich., U.S.A. and has the following compositions:
Calf brains, infusion from: 200 gm.
Beef heart, infusion from: 250 gm.
Bacto Proteose-peptone, Difco: 10 gm.
Bacto-Dextrose, Difco: 1 gm.
Disodium phosphate: 2.5 gm.

NC[C@H]1O[C@H](O[C@H]2[C@H](O)[C@@H](O)[C@H](N)C[C@@H]2N)[C@H](N)[C@@H](O)[C@@H]1O [Neamine]
MIC (read-out: Minimal Inhibitory Concentration): 250 µg/mL (≈ 776 µM)
MIC (read-out: Minimum Inhibitory Concentration): 250 µg/mL (≈ 776 µM)
